Here are results for 3 compounds from patent US20090298882A1, “THIOXOISOINDOLINE COMPOUNDS AND COMPOSITIONS COMPRISING AND METHODS OF USING THE SAME” (priority 2008, published 2009).

The test system of one series is Namalwa cells. In words: Cell proliferation assay (3H-thymidine incorporation). It is filed as cell-based. As to conditions: procedures substantially similar to Section 5.10. The method, then: Cell lines Namalwa, MUTZ-5, and UT-7 are obtained from the Deutsche Sammlung von Mikroorganismen und Zellkulturen GmbH (Braunschweig, Germany). The cell line KG-1 is obtained from the American Type Culture Collection (Manassas, Va., USA). Cell proliferation as indicated by ^3H-thymidine incorporation is measured in all cell lines as follows.
Cells are plated in 96-well plates at 6000 cells per well in media. The cells are pre-treated with compounds at about 100, 10, 1, 0.1, 0.01, 0.001, 0.0001 and 0 M in a final concentration of about 0.25% DMSO in triplicate at 37° C. in a humidified incubator at 5% CO2 for 72 hours. One microcurie of ^3H-thymidine (Amersham) is then added to each well, and cells are incubated again at 37 C in a humidified incubator at 5% CO2 for 6 hours. The cells are harvested onto UniFilter GF/C filter plates (Perkin Elmer) using a cell harvester (Tomtec), and the plates are allowed to dry overnight. Microscint 20 (Packard) (25 ÿl/well) is added, and plates are analyzed in TopCount NXT (Packard). Each well is counted for one minute. Percent inhibition of cell proliferation is calculated by averaging all triplicates and normalizing to the DMSO control (0% inhibition). Each compound is tested in each cell line in three separate experiments. Final IC50s are calculated using non-linear regression, sigmoidal dose-response, constraining the top to 100% and bottom to 0%, allowing variable slope. (GraphPad Prism v3.02).
(Dividing cells build labelled thymidine or BrdU into new DNA.)

Another series relates to TNFα. In words: TNFα Inhibition Assay in PMBC (LPS-stimulated, ELISA). The following applies: LPS-stimulated PBMC; procedures substantially similar to Section 5.10. It is filed as cell-based, human. The method, then: Peripheral blood mononuclear cells (PBMC) from normal donors are obtained by Ficoll Hypaque (Pharmacia, Piscataway, N.J., USA) density centrifugation. Cells are cultured in RPMI 1640 (Life Technologies, Grand Island, N.Y., USA) supplemented with 10% AB+human serum (Gemini Bio-products, Woodland, Calif., USA), 2 mM L-glutamine, 100 U/ml penicillin, and 100 µg/ml streptomycin (Life Technologies).
PBMC (2×10^5 cells) are plated in 96-well flat-bottom Costar tissue culture plates (Corning, N.Y., USA) in triplicate. Cells are stimulated with LPS (from Salmonella abortus equi, Sigma cat. no. L-1887, St. Louis, Mo., USA) at 1 ng/ml final in the absence or presence of compounds. Compounds provided herein are dissolved in DMSO (Sigma) and further dilutions are done in culture medium immediately before use. The final DMSO concentration in all assays can be about 0.25%. Compounds are added to cells 1 hour before LPS stimulation. Cells are then incubated for 18-20 hours at 37° C. in 5% CO2, and supernatants are then collected, diluted with culture medium and assayed for TNF levels by ELISA (Endogen, Boston, Mass., USA). IC50s are calculated using non-linear regression, sigmoidal dose-response, constraining the top to 100% and bottom to 0%, allowing variable slope (GraphPad Prism v3.02).
A general note: ELISA stands for enzyme-linked immunosorbent assay.

In the next series the test system is IL-2. Kind of series: IL-2 production by T cells (anti-CD3 stimulated, ELISA). The format is cell-based, human. As to conditions: procedures substantially similar to Section 5.10. As to the method:
PBMC are depleted of adherent monocytes by placing 1×10^8 PBMC in 10 ml complete medium (RPMI 1640 supplemented with 10% heat-inactivated fetal bovine serum, 2 mM L-glutamine, 100 U/ml penicillin, and 100 µg/ml streptomycin) per 10 cm tissue culture dish, in 37 C, 5% CO2 incubator for 30-60 minutes. The dish is rinsed with medium to remove all non-adherent PBMC. T cells are purified by negative selection using the following antibody (Pharmingen) and Dynabead (Dynal) mixture for every 1×10^8 non-adherent PBMC: 0.3 ml Sheep anti-mouse IgG beads, 15 1 anti-CD16, 15 1 anti-CD33, 15 1 anti-CD56, 0.23 ml anti-CD19 beads, 0.23 ml anti-HLA class II beads, and 56 1 anti-CD14 beads. The cells and bead/antibody mixture is rotated end-over-end for 30-60 minutes at 4 C. Purified T cells are removed from beads using a Dynal magnet. Typical yield is about 50% T cells, 87-95% CD3^+ by flow cytometry.
Tissue culture 96-well flat-bottom plates are coated with anti-CD3 antibody OKT3 at 5 μg/ml in PBS, 100 μl per well, incubated at 37° C. for 3-6 hours, then washed four times with complete medium 100 μl/well just before T cells are added. Compounds are diluted to 20 times of final in a round bottom tissue culture 96-well plate. Final concentrations are about 10 μM to about 0.00064 μM. A 10 mM stock of compounds provided herein is diluted 1:50 in complete for the first 20× dilution of 200 μM in 2% DMSO and serially diluted 1:5 into 2% DMSO. Compound is added at 10 μl per 200 l culture, to give a final DMSO concentration of 0.1%. Cultures are incubated at 37° C., 5% CO2 for 2-3 days, and supernatants analyzed for IL-2 and MIP-3 by ELISA (R&D Systems). IL-2 and MIP-3 levels are normalized to the amount produced in the presence of an amount of a compound provided herein, and EC50s calculated using non-linear regression, sigmoidal dose-response, constraining the top to 100% and bottom to 0%, allowing variable slope (GraphPad Prism v3.02).

The structures appear in SMILES notation.

In the case of `Nc1cccc2c1CN(C1CCC(=O)NC1=O)C2=S` (stereo not shown) [3-(4-Amino-1-thioxo-1,3-dihydro-isoindol-2-yl)-piperidine-2,6-dione], the “ability to inhibit proliferation of Namalwa cells (activity range)” value (from here on “ability to inhibit proliferation”) with Namalwa cells was “μM-mM”. Also, in the series on TNFα, the “ability to inhibit TNFα (activity range)” value was “μM-mM”. The “ability to stimulate IL-2 (activity range)” value with IL-2 is “μM-mM”.

For orientation: melting point means the temperature of the solid-liquid transition. In turn, `O=C1NC(=S)CCC1N1Cc2c(cccc2[N+](=O)[O-])C1=S` (stereo not shown) [3-(4-Nitro-1-thioxo-1,3-dihydro-isoindol-2-yl)-6-thioxo-piperidin-2-one] showed a melting point of 248 to 250 °C. The “ability to inhibit proliferation” value with Namalwa cells is reported as “μM-mM”. Also, the “ability to inhibit TNFα (activity range)” value with TNFα was “μM-mM”. Moreover, the “ability to stimulate IL-2 (activity range)” value in the series with IL-2 is on record as “μM-mM”.

For the compound `Nc1cccc2c1CN(C1CCC(=S)NC1=O)C2=S` (stereo not shown) [3-(4-Amino-1-thioxo-1,3-dihydro-isoindol-2-yl)-6-thioxo-piperidin-2-one], the “ability to inhibit proliferation” value with Namalwa cells is given as “μM-mM”. Further, the “ability to inhibit TNFα (activity range)” value with TNFα was “μM-mM”. Besides, the “ability to stimulate IL-2 (activity range)” value in the series on IL-2 is given as “μM-mM”.
